Results as given in PubChem BioAssay (NCI).
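How tested: cells in 96-well plates exposed to compound for 48 hours at five concentrations. Abbreviation: GI50, concentration required for 50% inhibition of growth. Definition used: TGI = concentration required for complete inhibition of growth.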 Where a SMILES comes first, the peptide text is derived from it. Bridges are numbered along the chain shown (N, C = ends). [ ]: non-standard residue; d: D form. ξ: configuration not given here. ξThr(3R) = C[C@@H](O)C(N)C(=O)O; S5 = C=CCCC[C@](C)(N)C(=O)O

Legend:
Experiment in all cases: growth of human tumour cells (NCI), 48 h
[1] = tested on: HT29 colon
[2] = tested on: HOP-92 NSCLC
[3] = tested on: OVCAR-5 ovarian
[4] = tested on: 786-0 renal
[5] = tested on: HCC-2998 colon
[6] = tested on: CCRF-CEM leukemia
[7] = tested on: U251 CNS
[8] = tested on: BT-549 breast
[9] = tested on: SNB-19 CNS
[10] = tested on: NCI-H226 lung

| Compound | GI50 [1] | TGI [1] | GI50 [2] | TGI [2] | GI50 [3] | TGI [3] | GI50 [4] | TGI [4] | GI50 [5] | TGI [5] | GI50 [6] | TGI [6] | GI50 [7] | TGI [7] | GI50 [8] | TGI [8] | GI50 [9] | TGI [9] | TGI [10] | GI50 [10] |
| --- | --- | --- | --- | --- | --- | --- | --- | --- | --- | --- | --- | --- | --- | --- | --- | --- | --- | --- | --- | --- |
| O=C1c2cccnc2C(=O)c2c1c(C(=O)NCCn1ccnc1)c1ccccn21 | 2.53 µM | 9.2 µM | 9.28 µM | 31.7 µM | 4.1 µM | 24.2 µM | 5.47 µM | 37.6 µM | 2.23 µM | 9.82 µM | 6.12 µM | > 100 µM | 2.96 µM | 9.18 µM | 5.14 µM | 16.9 µM | 2.22 µM | 11.9 µM | – | – |
| CN(C)Cc1ccc(C(C)(C)C)cc1-c1cc(C(C)(C)C)ccc1CN(C)C | – | > 100 µM | – | > 100 µM | – | > 100 µM | – | > 100 µM | – | 30.2 µM | – | > 100 µM | – | > 100 µM | – | > 100 µM | – | > 100 µM | > 100 µM | – |
| CC(=O)N[C@H](C(=O)N[C@@H](CCCNC(=N)N)C(=O)N[C@@H](CCCCN)C(=O)N[C@@H](CCCNC(=N)N)C(=O)NC(C(=O)N[C@@H](CC(C)C)C(=O)N[C@@H](CCCNC(=N)N)C(=O)N[C@@]1(C)CCC/C=C\CCC[C@@](C)(C(=O)N[C@@H](CCCNC(=N)N)C(=O)N[C@@H](CCC(=O)O)C(=O)N[C@@H](CC(C)C)C(=O)N[C@H](C(=O)N[C@@H](CCC(=O)O)C(N)=O)C(C)C)NC(=O)[C@H](CCC(N)=O)NC(=O)[C@H](CC(C)C)NC(=O)[C@H](CC(C)C)NC1=O)[C@@H](C)O)C(C)C (stereo partly drawn) (Ac-VRKR[ξThr(3R)]LR[S5]LLQ[S5]RELVE-NH2; staple (Z) 8-12) | 7.56 µM | 16.4 µM | 2.45 µM | 8.89 µM | 8.96 µM | 18.1 µM | 4.2 µM | 12.6 µM | 7.67 µM | 18.2 µM | 11.2 µM | 34.2 µM | 2.99 µM | 10.4 µM | 3.45 µM | 11.1 µM | 7.94 µM | 17.9 µM | 14.8 µM | 5.31 µM |
| CC(c1ccccc1)[C@@H](C(=O)Nc1ccc(I)cc1F)N1C(=O)N[C@H](c2ccc(OC[C@H](O)CO)cc2)C1=O (stereo partly specified) | 0.0683 µM | > 25 µM | 0.552 µM | 7.03 µM | 1.03 µM | > 25 µM | > 14.4 µM | > 25 µM | 0.445 µM | > 25 µM | 14.3 µM | > 25 µM | 7.86 µM | > 25 µM | 9.17 µM | > 23.7 µM | 6.63 µM | > 25 µM | > 25 µM | 14.5 µM |
| CCCCCC[C@@H](C)Nc1nc2ccccc2c2occc12 | 14.5 µM | 43.5 µM | 11.2 µM | 27.2 µM | 14 µM | 27.4 µM | 14.3 µM | 27.8 µM | 9.35 µM | 21.5 µM | 12.2 µM | 39.2 µM | 11.7 µM | 23.9 µM | 3.05 µM | 18.2 µM | 17.7 µM | 50.1 µM | – | – |
| COc1c(O)cc2c(c1O)C(=O)C1=C(CCCC1)C2=O | – | 40 µM | – | 82.7 µM | – | > 100 µM | – | 49.4 µM | – | 47.7 µM | – | 10.9 µM | – | > 100 µM | – | > 100 µM | – | 96.9 µM | > 100 µM | – |
| CCN(CC)CCC(CNc1ccnc2cc(Cl)ccc12)c1ccccc1 (stereo unspecified) | 0.493 µM | 10.4 µM | 4.51 µM | 21 µM | 16.9 µM | 73.3 µM | 3.69 µM | 13.5 µM | 2.09 µM | 6.6 µM | 4.02 µM | 36.5 µM | 3.93 µM | 14 µM | 10.8 µM | 24.6 µM | 16.2 µM | 74.1 µM | 41.1 µM | 11.3 µM |
| Cc1ccc(Cl)cc1NC(=O)c1cc2ccccc2cc1O | 3.37 µM | 14.2 µM | 0.222 µM | 0.724 µM | 0.992 µM | 10.7 µM | 0.507 µM | 1.94 µM | 0.692 µM | 2.47 µM | 0.733 µM | 2.84 µM | 0.319 µM | 4.12 µM | 0.294 µM | 1.28 µM | 0.442 µM | > 40.1 µM | 3.1 µM | 0.417 µM |
| CCOc1ccc2c(c1)CN(Cc1ccc(Cl)cc1)CO2 | 20.3 µM | 40.4 µM | 8.63 µM | 36.8 µM | 17.9 µM | 46.2 µM | 14.8 µM | 30.1 µM | 18.7 µM | 35 µM | 29.9 µM | 98.5 µM | 16.1 µM | 33.2 µM | 17.6 µM | 36.8 µM | 24.6 µM | > 100 µM | > 100 µM | 30.3 µM |
| C[C@@H](NC(=O)c1ncnc(N)c1Cl)c1ncc(C(=O)Nc2cc(C(F)(F)F)c(Cl)cn2)s1 | 1.07 µM | 46.2 µM | 1.46 µM | 9.44 µM | 5.88 µM | > 90.5 µM | 36.3 µM | > 100 µM | 13.7 µM | 40.7 µM | 25.4 µM | > 100 µM | 19.5 µM | > 68.5 µM | 22.1 µM | 81.2 µM | 26.6 µM | > 100 µM | 74.3 µM | 15.4 µM |
